Here are results for 15 compounds from PubChem BioAssay AID220 (DTP/NCI, 2004).

Values joined by “and” are separate entries in the source; they are usually repeats but may differ in a detail not shown here. Identical values can stand only once. Results filed as inconclusive are left out.

The assay has as its system CD8F1 mice, subcutaneous mammary adenocarcinoma, T/C%. Kind of assay: NCI In Vivo Anticancer Drug Screen. Data for tumor model Mammary Adenocarcinoma CD8F1 (subcutaneous) in CD8F1. The note with it: higher = larger tumour. Put shortly: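 Transplantable tumors were established in mice, animals were dosed with compound or vehicle, and survival or tumor size was then measured in both groups. The treated result was divided by the control result.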

Setting [1] is: endpoint: median tumor weight (est.), dose: 25.0 mg/kg/injection, schedule: Q07DX005 (ip), vehicle: saline.
Where [2] appears, read: endpoint: median tumor weight (est.), dose: 100.0 mg/kg/injection, schedule: Q07DX005 (ip), vehicle: saline with Tween-80.
Setting [3] is: endpoint: median tumor weight change, dose: 125.0 mg/kg/injection, schedule: Q01DX001 (ip), vehicle: saline with Tween-80.
[4] abbreviates: endpoint: median tumor weight change, dose: 250.0 mg/kg/injection, schedule: Q01DX001 (ip), vehicle: saline with Tween-80.
The mark [5] stands for this setting: endpoint: median tumor weight (est.), dose: 12.5 mg/kg/injection, schedule: Q07DX005 (ip), vehicle: saline.

Take `CSc1cc(=O)n2c3ccccc3c3ccnc1c32`: the T/C by setting is: (endpoint: median tumor weight (est.), dose: 2.5 mg/kg/injection, schedule: Q07DX005 (ip), vehicle: saline with Tween-80) 77 % of control; (endpoint: median tumor weight (est.), dose: 5.0 mg/kg/injection, schedule: Q07DX005 (ip), vehicle: saline with Tween-80) 74 % of control; (endpoint: median tumor weight (est.), dose: 10.0 mg/kg/injection, schedule: Q07DX005 (ip), vehicle: saline with Tween-80) 74 % of control; (endpoint: median tumor weight (est.), dose: 20.0 mg/kg/injection, schedule: Q07DX005 (ip), vehicle: saline with Tween-80) 65 % of control; (endpoint: median tumor weight (est.), dose: 40.0 mg/kg/injection, schedule: Q07DX005 (ip), vehicle: saline with Tween-80) 119 % of control; (endpoint: median tumor weight (est.), dose: 80.0 mg/kg/injection, schedule: Q07DX005 (ip), vehicle: saline with Tween-80) 59 % of control.
`CC1CN1P1(N2CC2C)=NP(N2CC2C)(N2CC2C)=NP(N2CC2C)(N2CC2C)=N1` (stereo unspecified): the T/C by setting is: (endpoint: mean tumor weight, dose: 12.5 mg/kg/injection, schedule: Q04DX005 (ip), vehicle: saline) 61 % of control; (endpoint: mean tumor weight, dose: 25.0 mg/kg/injection, schedule: Q04DX005 (ip), vehicle: saline) 97 % of control; (endpoint: mean tumor weight, dose: 25.0 mg/kg/injection, schedule: Q07DX005 (ip), vehicle: saline) 119 % of control; (endpoint: mean tumor weight, dose: 50.0 mg/kg/injection, schedule: Q04DX005 (ip), vehicle: saline) 66 % of control; (endpoint: mean tumor weight, dose: 50.0 mg/kg/injection, schedule: Q07DX005 (ip), vehicle: saline) 92 % of control; (endpoint: mean tumor weight, dose: 100.0 mg/kg/injection, schedule: Q04DX005 (ip), vehicle: saline) 13 % of control. The T/C was 49 % of control (endpoint: mean tumor weight, dose: 100.0 mg/kg/injection, schedule: Q07DX005 (ip), vehicle: saline); 70 % of control under setting [1]; 6 % of control and 11 % of control (endpoint: median tumor weight (est.), dose: 100.0 mg/kg/injection, schedule: Q07DX005 (ip), vehicle: saline).
Consider `C[C@@]12C(=O)OC(=O)[C@]1(C)[C@H]1CC[C@@H]2O1`, for which the T/C runs as follows: (endpoint: median tumor weight change, dose: 0.31 mg/kg/injection, schedule: Q01DX001 (ip), vehicle: Klucel (hydroxypropylcellulose) (HPC)) 100 % of control; (endpoint: median tumor weight change, dose: 1.25 mg/kg/injection, schedule: Q01DX001 (ip), vehicle: Klucel (hydroxypropylcellulose) (HPC)) 118 % of control.
On to `COC(=Nc1ccccc1)SSC(C)C`, for which the T/C under setting [2] was 43 % of control and 46 % of control.
Take `Cc1ccc(S(=O)(=O)N/N=C/C(=O)O)cc1`: the T/C is, setting by setting: (endpoint: median tumor weight (est.), dose: 12.5 mg/kg/injection, schedule: Q07DX005 (ip), vehicle: Klucel (hydroxypropylcellulose) (HPC)) 60 % of control; (endpoint: median tumor weight (est.), dose: 12.5 mg/kg/injection, schedule: Q07DX005 (ip), vehicle: other) 97 % of control; (endpoint: median tumor weight (est.), dose: 25.0 mg/kg/injection, schedule: Q07DX005 (ip), vehicle: Klucel (hydroxypropylcellulose) (HPC)) 120 % of control; (endpoint: median tumor weight (est.), dose: 25.0 mg/kg/injection, schedule: Q07DX005 (ip), vehicle: other) 70 % of control and 76 % of control; (endpoint: median tumor weight (est.), dose: 50.0 mg/kg/injection, schedule: Q07DX005 (ip), vehicle: Klucel (hydroxypropylcellulose) (HPC)) 62 % of control; (endpoint: median tumor weight (est.), dose: 100.0 mg/kg/injection, schedule: Q07DX005 (ip), vehicle: Klucel (hydroxypropylcellulose) (HPC)) 53 % of control.
On to `Nc1ncnc2c1ncn2C1OC(CO)CC1O` (stereo unspecified), for which the T/C runs as follows: (endpoint: median tumor weight (est.), dose: 37.5 mg/kg/injection, schedule: Q07DX005 (ip), vehicle: Klucel (hydroxypropylcellulose) (HPC)) 102 % of control; (endpoint: median tumor weight (est.), dose: 75.0 mg/kg/injection, schedule: Q07DX005 (ip), vehicle: Klucel (hydroxypropylcellulose) (HPC)) 88 % of control.
For the compound `S=c1[nH]cc2cnccn12`, the T/C was 92 % of control (endpoint: median tumor weight (est.), dose: 12.5 mg/kg/injection, schedule: Q07DX005 (ip), vehicle: saline with Tween-80); 105 % of control (endpoint: median tumor weight (est.), dose: 25.0 mg/kg/injection, schedule: Q07DX005 (ip), vehicle: saline with Tween-80); 85 % of control under setting [2]; 56 % of control (endpoint: median tumor weight (est.), dose: 200.0 mg/kg/injection, schedule: Q07DX005 (ip), vehicle: saline with Tween-80).
Turning to `O=C(c1cccnc1)c1cc(-c2ccccn2)c(=O)n2ccccc12`, the T/C was 182 % of control under setting [3]; 77 % of control under setting [4]; 78 % of control (endpoint: median tumor weight change, dose: 500.0 mg/kg/injection, schedule: Q01DX001 (ip), vehicle: saline with Tween-80); 56 % of control (endpoint: median tumor weight change, dose: 1000.0 mg/kg/injection, schedule: Q01DX001 (ip), vehicle: saline with Tween-80); 110 % of control (endpoint: median tumor weight change, dose: 2000.0 mg/kg/injection, schedule: Q01DX001 (ip), vehicle: saline with Tween-80).
Consider `O=c1[nH]c(=O)n(C2OC(CO)C(O)C2O)cc1F` (stereo unspecified), for which the T/C by setting is: (endpoint: median tumor weight (est.), dose: 1.56 mg/kg/injection, schedule: Q07DX005 (ip), vehicle: saline) 79 % of control; (endpoint: median tumor weight (est.), dose: 3.12 mg/kg/injection, schedule: Q07DX005 (ip), vehicle: saline) 103 % of control; (endpoint: median tumor weight (est.), dose: 6.25 mg/kg/injection, schedule: Q07DX005 (ip), vehicle: saline) 75 % of control; under setting [5], 45 % of control; under setting [1], 11 % of control.
In the case of `CCCCOCN(COCCCC)C12CC3CC(CC(C3)C1)C2`, the T/C by setting is: (endpoint: median tumor weight change, dose: 62.5 mg/kg/injection, schedule: Q01DX001 (ip), vehicle: saline with Tween-80) 122 % of control; under setting [3], 79 % of control; under setting [4], 61 % of control.
Turning to `CN1C(=O)NC(c2ccc(Cl)cc2)(c2ccc(Cl)cc2)C1=O`, the T/C runs as follows: (endpoint: median tumor weight change, dose: 125.0 mg/kg/injection, schedule: Q01DX001 (ip), vehicle: distilled water + Tween-80) 98 % of control; (endpoint: median tumor weight change, dose: 250.0 mg/kg/injection, schedule: Q01DX001 (ip), vehicle: distilled water + Tween-80) 80 % of control; (endpoint: median tumor weight change, dose: 500.0 mg/kg/injection, schedule: Q01DX001 (ip), vehicle: distilled water + Tween-80) 70 % of control; (endpoint: median tumor weight change, dose: 1000.0 mg/kg/injection, schedule: Q01DX001 (ip), vehicle: distilled water + Tween-80) 40 % of control.
For the compound `O=C(Nc1ccc(C2=NCCN2)cc1)c1ccc(C(=O)Nc2ccc(C3=NCCN3)cc2)c(Cl)c1`, the T/C (endpoint: mean tumor weight, dose: 6.25 mg/kg/injection, schedule: Q07DX004 (ip), vehicle: saline with Tween-80) was 70 % of control; the T/C (endpoint: mean tumor weight, dose: 12.5 mg/kg/injection, schedule: Q07DX004 (ip), vehicle: saline with Tween-80) was 77 % of control; the T/C (endpoint: mean tumor weight, dose: 25.0 mg/kg/injection, schedule: Q07DX004 (ip), vehicle: saline with Tween-80) is 71 % of control.
For the compound `CCCCCCCCCCCCCCCC(=O)O[C@@]12C[C@@H](C)[C@@]3(O)[C@@H](C=C(CO)C[C@]4(O)C(=O)C(C)=C[C@@H]34)[C@@H]1C2(C)C`, the T/C is, setting by setting: (endpoint: median tumor weight (est.), dose: 0.06 mg/kg/injection, schedule: Q07DX005 (ip), vehicle: saline) 84 % of control; (endpoint: median tumor weight (est.), dose: 0.12 mg/kg/injection, schedule: Q07DX005 (ip), vehicle: saline) 68 % of control; (endpoint: median tumor weight (est.), dose: 0.25 mg/kg/injection, schedule: Q07DX005 (ip), vehicle: saline) 62 % of control; (endpoint: median tumor weight (est.), dose: 0.5 mg/kg/injection, schedule: Q07DX005 (ip), vehicle: saline) 97 % of control; (endpoint: median tumor weight (est.), dose: 1.0 mg/kg/injection, schedule: Q07DX005 (ip), vehicle: saline) 68 % of control.
Take `Nc1ccc(Cl)cc1N`: the T/C (endpoint: median tumor weight (est.), dose: 12.5 mg/kg/injection, schedule: Q07DX005 (ip), vehicle: saline + alcohol) was 92 % of control; the T/C (endpoint: median tumor weight (est.), dose: 25.0 mg/kg/injection, schedule: Q07DX005 (ip), vehicle: saline + alcohol) is 100 % of control; the T/C (endpoint: median tumor weight (est.), dose: 50.0 mg/kg/injection, schedule: Q07DX005 (ip), vehicle: saline + alcohol) is 100 % of control; the T/C (endpoint: median tumor weight (est.), dose: 100.0 mg/kg/injection, schedule: Q07DX005 (ip), vehicle: saline + alcohol) was 88 % of control; the T/C (endpoint: median tumor weight (est.), dose: 200.0 mg/kg/injection, schedule: Q07DX005 (ip), vehicle: saline + alcohol) was 123 % of control.
Take `CN1c2c(nc(N)[nH]c2=O)NCC1CCNc1ccc(C(=O)NC(CCC(=O)O)C(=O)O)cc1` (stereo unspecified): the T/C runs as follows: (endpoint: mean tumor weight, dose: 25.0 mg/kg/injection, schedule: Q07DX008 (ip), vehicle: sodium bicarbonate) 119 % of control; (endpoint: mean tumor weight, dose: 50.0 mg/kg/injection, schedule: Q07DX008 (ip), vehicle: sodium bicarbonate) 77 % of control; (endpoint: mean tumor weight, dose: 100.0 mg/kg/injection, schedule: Q07DX008 (ip), vehicle: sodium bicarbonate) 72 % of control; under setting [5], 103 % of control; under setting [1], 95 % of control; (endpoint: median tumor weight (est.), dose: 800.0 mg/kg/injection, schedule: Q07DX005 (ip), vehicle: saline) 98 % of control.
